Literature values in patent US11690800B2, “Non-irritating, non-blurring, photostable ophthalmic sunscreen composition” (A. EBBIE SOROUDI, M.D., M.S., A PROFESSIONAL MEDICAL …, priority 2014, dated 2023).

How the values were obtained:
[1] = oil phase and water phase of a sunscreen
[2] = formulated into a dermatologic sunscreen

For CC(C)(C)CC(C)(C)c1cc(Cc2cc(C(C)(C)CC(C)(C)C)cc(-n3nc4ccccc4n3)c2O)c(O)c(-n2nc3ccccc3n2)c1 [Bisoctrizole, 2,2′-methanediylbis[6-(2H-benzotriazol-2-yl)-4-(2,4,4-trimethylpentan-2-yl)phenol]], the “dissolution in oil or water phase” value [1] is given as “dissolves poorly in both” and the skin penetration [2] is given as “minimal skin penetration”.
